From PMC11062899, “De novo development of small cyclic peptides that are orally bioavailable” (Nature Chemical Biology, 2023)
Values joined by “and” are separate entries in the source; they are usually repeats but may differ in a detail not shown here. Equal entries are not always repeated.

Key:
human α-thrombin = human α-thrombin (Homo sapiens, UniProt P00734); test: Protease inhibition, Ki for human α-thrombin (fluorogenic substrate Z-Gly-Gly-Arg-AMC); assay type: biochemical; details: replicates R1-R3
How it was run: (§1)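 Ki values come from Cheng–Prusoff correction of IC50, itself fitted by four-parameter logistic regression of activity versus a no-peptide control. Assays used 2 nM human or 3 nM rat thrombin, 50 μM Z-Gly-Gly-Arg-AMC, 30 min kinetic fluorescence at 25 °C.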

rat α-thrombin = target: T1, rat α-thrombin (Rattus norvegicus, UniProt P18292); test: Protease inhibition, Ki for rat α-thrombin (fluorogenic substrate Z-Gly-Gly-Arg-AMC); assay type: biochemical; details: replicates R1-R3
T1 construct: rat α-thrombin (Molecular Innovations) were used at final concentrations of 2 nM and 3 nM; purchased Molecular Innovations
How it was run: as §1

porcine pepsin = target: T2, porcine pepsin (Sus scrofa, UniProt P00791); test: Peptide stability in simulated gastric fluid (SGF); assay type: in vitro ADME; details: for SGF stability, Residual peptide Average / SGF stability, Residual peptide: after 8 h vs 0 h (TIC); for SGF stability, Residual peptide Average: average of R1-R3; for SGF stability, Residual peptide: single replicates R1-R3; for remaining at 8 h: simulated gi fluid, 37 °C, pH 1.2, read-out: Proteolytic stability: SGF (8 h) % remaining
T2 construct: 0.32 g of porcine pepsin (Sigma-Aldrich, P7125) was dissolved under gentle agitation; purchased Sigma-Aldrich P7125
T2 sequence (P00791 60-385): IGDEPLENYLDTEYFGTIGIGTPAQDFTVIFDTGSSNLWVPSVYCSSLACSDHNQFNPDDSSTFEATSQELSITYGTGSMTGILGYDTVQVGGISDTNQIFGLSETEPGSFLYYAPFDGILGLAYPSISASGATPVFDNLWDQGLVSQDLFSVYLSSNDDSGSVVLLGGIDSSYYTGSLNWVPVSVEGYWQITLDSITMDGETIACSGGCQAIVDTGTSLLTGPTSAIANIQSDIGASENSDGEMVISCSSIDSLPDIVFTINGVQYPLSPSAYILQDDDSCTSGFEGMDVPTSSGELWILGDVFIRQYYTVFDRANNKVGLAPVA
How it was run: (§2)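 Peptide from a 1 mM DMSO stock was added to fluid pre-warmed at 37 °C. SGF was pH 1.2 NaCl with porcine pepsin (0.32 g per 100 ml), and SIF was pH 6.8 potassium phosphate with porcine pancreatin (1 g per 100 ml). Supernatant peptide was quantified by LC–MS, with residual expressed as T1/T0.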

[1] = Peptide stability in simulated intestinal fluid (SIF); assay type: in vitro ADME, porcine; details: simulated gi fluid; 8 h, 37 °C, pH 6.8; read-out: Proteolytic stability: SIF (8 h) % remaining
How it was run: as §2

porcine pancreatin = test: as above; assay type: in vitro ADME; details: after 8 h vs 0 h (TIC); for SIF stability, Residual peptide Average: average of R1-R3
How it was run: as §2

[2] = Passive artificial membrane permeability (PAMPA); details: for PAMPA permeability: % permeability: 50 μM, 12–18 h, acceptor concentration relative to equilibrium; for Papp at 50 μM / Permeability% Average / Permeability% R1 / Permeability% R3: PAMPA; for Papp at 50 μM: pH 7.4; for Permeability% Average: average of R1-R3; for Permeability% R1: replicate R1; for Permeability% R1 / Permeability% R3: TIC of top well sample relative to sample at theoretical equilibrium; for Permeability% R3: replicate R3
[3] = Metabolic stability in rat liver microsomes (RLMs); details: rat, microsomes
[4] = peptide 1.33E+02 uM, slope of proteolytic substrate cleavage over time
[5] = CL (ul/min/mg protein) R1, RLM CL, replicate R1
[6] = CL (ul/min/mg protein) R2, RLM CL, replicate R2
[7] = CL (ul/min/mg protein) R3, RLM CL, replicate R3
[8] = Half Life (min) R2, RLM metabolic stability, replicate R2, 0-60 min
[9] = Half Life (min) R3, RLM metabolic stability, replicate R3, 0-60 min
[10] = Metabolic stability: RLM CL (ul/min/mg), RLMs, mean and SD, three measurements

CC(C)[C@@H]1NC(=O)[C@@H](NC(=O)c2ccc(Cl)s2)CNC(=O)CCSCc2cccc(n2)CSCCNC1=O [compound 19]
Human alpha thrombin inhibition, slope normalized to DMSO (human α-thrombin; peptide 1.02E-03 uM): 98.0 and 91.0 and 96.2
Human alpha thrombin inhibition, slope normalized to DMSO (human α-thrombin; peptide 1.04E+00 uM): 90.3 and 89.1 and 92.4
Human alpha thrombin inhibition, slope normalized to DMSO (human α-thrombin; peptide 1.27E-04 uM): 96.9 and 100.1 and 95.3
Human alpha thrombin inhibition, slope normalized to DMSO (human α-thrombin; peptide 1.30E-01 uM): 95.8 and 125.1 and 96.3
Human alpha thrombin inhibition, slope normalized to DMSO (human α-thrombin; [4]): 74.4 and 73.1 and 82.6
Human alpha thrombin inhibition, slope normalized to DMSO (human α-thrombin; peptide 1.63E-02 uM): 97.3 and 90.7 and 96.5
Human alpha thrombin inhibition, slope normalized to DMSO (human α-thrombin; peptide 1.67E+01 uM): 83.1 and 82.1 and 94.4
Human alpha thrombin inhibition, slope normalized to DMSO (human α-thrombin; peptide 2.03E-03 uM): 96.1 and 96.3 and 98.7
Human alpha thrombin inhibition, slope normalized to DMSO (human α-thrombin; peptide 2.08E+00 uM): 89.8 and 84.9 and 90.4
Human alpha thrombin inhibition, slope normalized to DMSO (human α-thrombin; peptide 2.54E-04 uM): 98.3 and 94.9 and 77.9
Human alpha thrombin inhibition, slope normalized to DMSO (human α-thrombin; peptide 2.60E-01 uM): 93.9 and 90.6 and 94.3
Human alpha thrombin inhibition, slope normalized to DMSO (human α-thrombin; peptide 3.18E-05 uM): 98.5 and 92.5 and 100.2
Human alpha thrombin inhibition, slope normalized to DMSO (human α-thrombin; peptide 3.26E-02 uM): 95.9 and 95.8 and 99.6
Human alpha thrombin inhibition, slope normalized to DMSO (human α-thrombin; peptide 3.33E+01 uM): 78.3 and 75.1 and 78.9
Human alpha thrombin inhibition, slope normalized to DMSO (human α-thrombin; peptide 4.07E-03 uM): 94.7 and 93.4 and 96.1
Human alpha thrombin inhibition, slope normalized to DMSO (human α-thrombin; peptide 4.17E+00 uM): 83.3 and 83.5 and 89.8
Human alpha thrombin inhibition, slope normalized to DMSO (human α-thrombin; peptide 5.09E-04 uM): 93.5 and 91.5 and 93.7
Human alpha thrombin inhibition, slope normalized to DMSO (human α-thrombin; peptide 5.21E-01 uM): 92.8 and 90.2 and 92.1
Human alpha thrombin inhibition, slope normalized to DMSO (human α-thrombin; peptide 6.36E-05 uM): 97.2 and 93.5 and 90.4
Human alpha thrombin inhibition, slope normalized to DMSO (human α-thrombin; peptide 6.51E-02 uM): 99.6 and 94.9 and 95.6
Human alpha thrombin inhibition, slope normalized to DMSO (human α-thrombin; peptide 6.67E+01 uM): 77.2 and 75.7 and 77.5
Human alpha thrombin inhibition, slope normalized to DMSO (human α-thrombin; peptide 8.14E-03 uM): 97.4 and 94.0 and 99.7
Human alpha thrombin inhibition, slope normalized to DMSO (human α-thrombin; peptide 8.33E+00 uM): 84.1 and 83.5 and 81.2
Rat alpha thrombin inhibition, slope normalized to DMSO (rat α-thrombin; [4]): 43.4 and 70.6
Rat alpha thrombin inhibition, slope normalized to DMSO (rat α-thrombin; peptide 1.67E+01 uM): 56.7 and 58.6
Rat alpha thrombin inhibition, slope normalized to DMSO (rat α-thrombin; peptide 2.08E+00 uM): 84.9 and 85.4 and 90.4
Rat alpha thrombin inhibition, slope normalized to DMSO (rat α-thrombin; peptide 3.33E+01 uM): 53.0 and 50.7 and 58.4
Rat alpha thrombin inhibition, slope normalized to DMSO (rat α-thrombin; peptide 4.17E+00 uM): 73.8 and 75.0 and 69.4
Rat alpha thrombin inhibition, slope normalized to DMSO (rat α-thrombin; peptide 6.67E+01 uM): 39.7 and 48.9 and 63.6
Rat alpha thrombin inhibition, slope normalized to DMSO (rat α-thrombin; peptide 8.33E+00 uM): 59.4 and 61.3 and 72.8
SGF stability, Residual peptide Average (porcine pepsin): 94.69
SGF stability, Residual peptide (porcine pepsin): 92.56 and 99.47 and 92.05
remaining at 8 h (porcine pepsin): 95 ± 4%
remaining at 8 h [1]: 62 ± 15%
SIF stability, Residual peptide Average (porcine pancreatin): 62.00
SIF stability, Residual peptide (porcine pancreatin; single replicates R1-R3): 68.18 and 45.06 and 72.76
PAMPA permeability: % permeability [2]: 5.7 ± 1.3%
Papp at 50 μM [2]: 0.38 ×10⁻⁶ cm/s
Permeability% Average [2]: 5.7%
Permeability% R1 [2]: 7.10%
Permeability% R3 [2]: 4.56%
microsomal CLint [3, 5]: 13.1 µL/min/mg
microsomal CLint [3, 6]: 42.3 µL/min/mg
microsomal CLint [3, 7]: 68.3 µL/min/mg
half-life [3, 8]: 32.8 min
half-life [3, 9]: 20.3 min
half-life ([3]; Metabolic stability: Half life T1/2 (min), RLMs, mean and SD, three measurements): 53 ± 38 min
microsomal CLint [3, 10]: 41 ± 23 µL/min/mg

NC(=O)NCCC[C@@H]1NC(=O)[C@@H](NC(=O)c2ccc(Cl)s2)CNC(=O)CCSCc2cccc(n2)CSCCNC1=O [compound 20]
Human alpha thrombin inhibition, slope normalized to DMSO (human α-thrombin; peptide 1.02E-03 uM): 98.9 and 95.1 and 89.8
Human alpha thrombin inhibition, slope normalized to DMSO (human α-thrombin; peptide 1.04E+00 uM): 90.6 and 90.5 and 80.1
Human alpha thrombin inhibition, slope normalized to DMSO (human α-thrombin; peptide 1.27E-04 uM): 100.0 and 98.9 and 93.2
Human alpha thrombin inhibition, slope normalized to DMSO (human α-thrombin; peptide 1.30E-01 uM): 69.5 and 98.5 and 88.7
Human alpha thrombin inhibition, slope normalized to DMSO (human α-thrombin; [4]): 42.6 and 48.7 and 48.9
Human alpha thrombin inhibition, slope normalized to DMSO (human α-thrombin; peptide 1.63E-02 uM): 88.4 and 95.2 and 91.8
Human alpha thrombin inhibition, slope normalized to DMSO (human α-thrombin; peptide 1.67E+01 uM): 73.5 and 78.5 and 58.5
Human alpha thrombin inhibition, slope normalized to DMSO (human α-thrombin; peptide 2.03E-03 uM): 99.2 and 96.7 and 91.4
Human alpha thrombin inhibition, slope normalized to DMSO (human α-thrombin; peptide 2.08E+00 uM): 75.3 and 92.4 and 77.6
Human alpha thrombin inhibition, slope normalized to DMSO (human α-thrombin; peptide 2.54E-04 uM): 99.2 and 99.7 and 92.0
Human alpha thrombin inhibition, slope normalized to DMSO (human α-thrombin; peptide 2.60E-01 uM): 120.3 and 99.5 and 85.9
Human alpha thrombin inhibition, slope normalized to DMSO (human α-thrombin; peptide 3.18E-05 uM): 87.6 and 101.9 and 93.6
Human alpha thrombin inhibition, slope normalized to DMSO (human α-thrombin; peptide 3.26E-02 uM): 82.7 and 95.9 and 92.3
Human alpha thrombin inhibition, slope normalized to DMSO (human α-thrombin; peptide 3.33E+01 uM): 52.1 and 61.8 and 43.1
Human alpha thrombin inhibition, slope normalized to DMSO (human α-thrombin; peptide 4.07E-03 uM): 96.4 and 99.1 and 90.2
Human alpha thrombin inhibition, slope normalized to DMSO (human α-thrombin; peptide 4.17E+00 uM): 69.9 and 89.4 and 83.9
Human alpha thrombin inhibition, slope normalized to DMSO (human α-thrombin; peptide 5.09E-04 uM): 96.6 and 98.5 and 95.0
Human alpha thrombin inhibition, slope normalized to DMSO (human α-thrombin; peptide 5.21E-01 uM): 80.4 and 93.9 and 89.5
Human alpha thrombin inhibition, slope normalized to DMSO (human α-thrombin; peptide 6.36E-05 uM): 91.9 and 97.1 and 90.0
Human alpha thrombin inhibition, slope normalized to DMSO (human α-thrombin; peptide 6.51E-02 uM): 80.1 and 98.2 and 90.6
Human alpha thrombin inhibition, slope normalized to DMSO (human α-thrombin; peptide 6.67E+01 uM): 54.5 and 43.3 and 24.5
Human alpha thrombin inhibition, slope normalized to DMSO (human α-thrombin; peptide 8.14E-03 uM): 89.1 and 102.0 and 83.1
Human alpha thrombin inhibition, slope normalized to DMSO (human α-thrombin; peptide 8.33E+00 uM): 94.4 and 79.6 and 74.6
Rat alpha thrombin inhibition, slope normalized to DMSO (rat α-thrombin; [4]): 12.2 and 19.4 and 24.3
Rat alpha thrombin inhibition, slope normalized to DMSO (rat α-thrombin; peptide 1.67E+01 uM): 41.8 and 45.6 and 42.9
Rat alpha thrombin inhibition, slope normalized to DMSO (rat α-thrombin; peptide 2.08E+00 uM): 71.5 and 79.0 and 60.4
Rat alpha thrombin inhibition, slope normalized to DMSO (rat α-thrombin; peptide 3.33E+01 uM): 25.4 and 28.0 and 27.8
Rat alpha thrombin inhibition, slope normalized to DMSO (rat α-thrombin; peptide 4.17E+00 uM): 66.5 and 70.9 and 68.3
Rat alpha thrombin inhibition, slope normalized to DMSO (rat α-thrombin; peptide 6.67E+01 uM): 16.3 and 21.9 and 8.4
Rat alpha thrombin inhibition, slope normalized to DMSO (rat α-thrombin; peptide 8.33E+00 uM): 56.5 and 61.2 and 59.0
SGF stability, Residual peptide Average (porcine pepsin): 96.69
SGF stability, Residual peptide (porcine pepsin): 100.68 and 91.38 and 98.01
remaining at 8 h (porcine pepsin): 97 ± 5%
remaining at 8 h [1]: 93 ± 13%
SIF stability, Residual peptide Average (porcine pancreatin): 92.33
PAMPA permeability: % permeability [2]: 0.99 ± 0.28%
Papp at 50 μM [2]: 0.0646 ×10⁻⁶ cm/s
Permeability% Average [2]: 1.0%
Permeability% R1 [2]: 1.25%
Permeability% R3 [2]: 1.03%
microsomal CLint [3, 5]: 29.5 µL/min/mg
microsomal CLint [3, 6]: 24 µL/min/mg
microsomal CLint [3, 7]: 26.2 µL/min/mg
half-life ([3]; Half Life (min) R1, RLM metabolic stability, replicate R1, 0-60 min): 46.9 min
half-life [3, 8]: 57.7 min
half-life [3, 9]: 53 min
microsomal CLint [3, 10]: 27 ± 2 µL/min/mg
